Literature values in PMC12304798 (British Journal of Clinical Pharmacology, 2025).
Like-named read-outs stand apart in the source and are kept apart here.

Legend:
NE activity [1] = conditions: once-daily doses, healthy volunteers
[2] = healthy Japanese and Caucasian volunteers
NE activity [3] = system: NE activity

Compound | reduction in NE activity (NE activity [1]) | skin exfoliation, share of volunteers [2] | inhibitory effect on NE activity (NE activity [3]; brensocatib 10 mg) | inhibitory effect on NE activity (NE activity [3]; brensocatib 25 mg)
CC[C@@H](/C=C/C(=O)N1CCc2ccccc21)NC(=O)C1(N)CCOCC1 [GSK2793660] | approximately 20% |  |  | 
Cn1c(=O)oc2ccc(-c3ccc(C[C@@H](C#N)NC(=O)[C@@H]4CNCCCO4)cc3)cc21 [brensocatib] |  | 10% | 30% | 49%
